Consider 11 molecules from patent US10626144B2, “Peptide derivatives and uses thereof” (Nosopharm, priority 2014, dated 2020).

Common to all, as to assay: MIC, broth microdilution (CLSI), reference strain
Common to all, as to settings: CAMHB

Assay [1] deals with Pseudomonas aeruginosa ATCC 27853.
Assay [2] concerns Staphylococcus aureus ATCC 13709.
Assay [3] has as its system Escherichia coli ATCC 25922.
The test system of assay [4] is Acinetobacter baumannii ATCC 19606.

Square brackets hold non-standard residues; d marks the D form. Peptide text beside a SMILES is read from it. * marks the point of attachment. Pro(trans-4-F) = O=C(O)[C@@H]1C[C@@H](F)CN1; Dab(3S-OH) = NC[C@H](O)[C@H](N)C(=O)O; ΔZArg = N=C(N)NCC/C=C(\N)C(=O)O; dOrn = NCCC[C@@H](N)C(=O)O; NH(CH2)5NH2 = NCCCCCN*; NH(CH2)4NH2 = NCCCCN*

Take `N=C(N)NCC/C=C(\NC(=O)[C@@H](CCCCN)NC(=O)[C@H](Cc1cnc[nH]1)NC(=O)[C@@H]1CCCN1C(=O)[C@@H](CCCN)NC(=O)CNC(=O)[C@@H](NC(=O)[C@@H](NC(=O)[C@@H](N)CCCCN)[C@@H](O)CN)[C@@H](O)CN)C(=O)N[C@@H](CCCCN)C(=O)NCCCCN` [22.11] (H-K[Dab(3S-OH)][Dab(3S-OH)]G[dOrn]PH[dK][ΔZArg]K-{NH(CH2)4NH2}): the “Pa: MIC Pseudomonas aeruginosa ATCC 27853” value in assay [1] was “+ (≤32 μg/mL)”. Also, the “Sa: MIC Staphylococcus aureus ATCC 13709” value in assay [2] was “++ (≤8 μg/mL)”. Besides, the “Ec: MIC Escherichia coli ATCC 25922” value in assay [3] is “++ (≤8 μg/mL)”. In assay [4], the “Ab: MIC Acinetobacter baumannii ATCC 19606” value is “− (>32 μg/mL)”.

For the molecule `N=C(N)NCC/C=C(\NC(=O)[C@H](CCCCN)NC(=O)[C@H](Cc1c[nH]cn1)NC(=O)[C@@H]1CCCN1C(=O)[C@@H](CCCN)NC(=O)CNC(=O)[C@@H](NC(=O)[C@@H](NC(=O)[C@@H](N)CCCCN)[C@@H](O)CN)[C@@H](O)CN)C(=O)N[C@@H](CCCCN)C(=O)NCCCCCN` [22.12] (H-K[Dab(3S-OH)][Dab(3S-OH)]G[dOrn]PHK[ΔZArg]K-{NH(CH2)5NH2}; C-terminus assumed), the “Pa: MIC Pseudomonas aeruginosa ATCC 27853” value in assay [1] is “− (>32 μg/mL)”. For the same molecule, in assay [2], the “Sa: MIC Staphylococcus aureus ATCC 13709” value is listed as “++ (≤8 μg/mL)”. For the same molecule, the “Ec: MIC Escherichia coli ATCC 25922” value in assay [3] is “++ (≤8 μg/mL)”. Further, in assay [4], the “Ab: MIC Acinetobacter baumannii ATCC 19606” value was “− (>32 μg/mL)”.

For `N=C(N)NCC/C=C(\NC(=O)[C@H](CCCCN)NC(=O)[C@H](Cc1cnc[nH]1)NC(=O)[C@@H]1C[C@@H](F)CN1C(=O)[C@@H](CCCN)NC(=O)CNC(=O)[C@@H](NC(=O)[C@@H](NC(=O)[C@@H](N)CCCCN)[C@@H](O)CN)[C@@H](O)CN)C(=O)N[C@@H](CCCCN)C(=O)NCCCCN` [22.13] (H-K[Dab(3S-OH)][Dab(3S-OH)]G[dOrn][Pro(trans-4-F)]HK[ΔZArg]K-{NH(CH2)4NH2}), the “Pa: MIC Pseudomonas aeruginosa ATCC 27853” value in assay [1] is “++ (≤8 μg/mL)”. Moreover, the “Sa: MIC Staphylococcus aureus ATCC 13709” value in assay [2] is given as “++ (≤8 μg/mL)”. The “Ec: MIC Escherichia coli ATCC 25922” value in assay [3] is given as “+ (≤32 μg/mL)”. Besides, the “Ab: MIC Acinetobacter baumannii ATCC 19606” value in assay [4] is recorded as “− (>32 μg/mL)”.

`C[C@H](NC(=O)/C(=C/CCNC(=N)N)NC(=O)[C@H](CCCCN)NC(=O)[C@H](Cc1cnc[nH]1)NC(=O)[C@@H]1CCCN1C(=O)[C@@H](CCCN)NC(=O)CNC(=O)[C@@H](NC(=O)[C@@H](NC(=O)[C@@H](N)CCCCN)[C@@H](O)CN)[C@@H](O)CN)C(N)=O` [22.14] (H-K[Dab(3S-OH)][Dab(3S-OH)]G[dOrn]PHK[ΔZArg]A-NH2): the “Pa: MIC Pseudomonas aeruginosa ATCC 27853” value in assay [1] was “− (>32 μg/mL)”. The “Sa: MIC Staphylococcus aureus ATCC 13709” value in assay [2] is reported as “++ (≤8 μg/mL)”. Also, in assay [3], the “Ec: MIC Escherichia coli ATCC 25922” value was “++ (≤8 μg/mL)”. The “Ab: MIC Acinetobacter baumannii ATCC 19606” value in assay [4] is on record as “− (>32 μg/mL)”.

Consider `N=C(N)NCCC[C@H](NC(=O)[C@H](CCCCN)NC(=O)[C@H](Cc1cnc[nH]1)NC(=O)[C@@H]1CCCN1C(=O)[C@@H](CCCN)NC(=O)CNC(=O)[C@@H](NC(=O)[C@@H](NC(=O)[C@@H](N)CCCCN)[C@@H](O)CN)[C@@H](O)CN)C(=O)N[C@@H](CCCCN)C(=O)NCCCCN` [22.17] (H-K[Dab(3S-OH)][Dab(3S-OH)]G[dOrn]PHKRK-{NH(CH2)4NH2}), for which, in assay [1], the “Pa: MIC Pseudomonas aeruginosa ATCC 27853” value was “− (>32 μg/mL)”. Moreover, the “Sa: MIC Staphylococcus aureus ATCC 13709” value in assay [2] was “++ (≤8 μg/mL)”. Also, the “Ec: MIC Escherichia coli ATCC 25922” value in assay [3] is recorded as “+ (≤32 μg/mL)”. In addition, the “Ab: MIC Acinetobacter baumannii ATCC 19606” value in assay [4] is listed as “− (>32 μg/mL)”.

Regarding `C[C@H](NC(=O)[C@@H](CCCN)NC(=O)CNC(=O)[C@@H](NC(=O)[C@@H](NC(=O)[C@@H](N)CCCCN)[C@@H](O)CN)[C@@H](O)CN)C(=O)N[C@@H](Cc1cnc[nH]1)C(=O)N[C@@H](CCCCN)C(=O)N/C(=C\CCNC(=N)N)C(=O)N[C@@H](CCCCN)C(=O)NCCCCN` [22.18] (H-K[Dab(3S-OH)][Dab(3S-OH)]G[dOrn]AHK[ΔZArg]K-{NH(CH2)4NH2}), in assay [1], the “Pa: MIC Pseudomonas aeruginosa ATCC 27853” value is “− (>32 μg/mL)”. In assay [2], the “Sa: MIC Staphylococcus aureus ATCC 13709” value was “++ (≤8 μg/mL)”. Further, in assay [3], the “Ec: MIC Escherichia coli ATCC 25922” value is “+ (≤32 μg/mL)”. Besides, the “Ab: MIC Acinetobacter baumannii ATCC 19606” value in assay [4] is listed as “− (>32 μg/mL)”.

Regarding `N=C(N)NCC/C=C(\NC(=O)[C@H](CCCCN)NC(=O)[C@H](Cc1cnc[nH]1)NC(=O)[C@@H]1CCCN1C(=O)[C@@H](CCCN)NC(=O)CNC(=O)[C@@H](NC(=O)[C@@H](NC(=O)[C@@H](N)CCCCN)[C@@H](O)CN)[C@@H](O)CN)C(=O)O` [22.20] (H-K[Dab(3S-OH)][Dab(3S-OH)]G[dOrn]PHK[ΔZArg]-OH), the “Pa: MIC Pseudomonas aeruginosa ATCC 27853” value in assay [1] is given as “++ (≤8 μg/mL)”. Moreover, the “Sa: MIC Staphylococcus aureus ATCC 13709” value in assay [2] is listed as “++ (≤8 μg/mL)”. For the same molecule, the “Ec: MIC Escherichia coli ATCC 25922” value in assay [3] is listed as “+ (≤32 μg/mL)”. The “Ab: MIC Acinetobacter baumannii ATCC 19606” value in assay [4] is “− (>32 μg/mL)”.

Consider `NCCCCNC(=O)[C@H](CCCCN)NC(=O)[C@@H](CCCCN)NC(=O)[C@H](CCCCN)NC(=O)[C@H](Cc1cnc[nH]1)NC(=O)[C@@H]1CCCN1C(=O)[C@@H](CCCN)NC(=O)CNC(=O)[C@@H](NC(=O)[C@@H](NC(=O)[C@@H](N)CCCCN)[C@@H](O)CN)[C@@H](O)CN` [22.21] (H-K[Dab(3S-OH)][Dab(3S-OH)]G[dOrn]PHK[dK]K-{NH(CH2)4NH2}), for which, in assay [1], the “Pa: MIC Pseudomonas aeruginosa ATCC 27853” value is “− (>32 μg/mL)”. In addition, the “Sa: MIC Staphylococcus aureus ATCC 13709” value in assay [2] is reported as “++ (≤8 μg/mL)”. In addition, in assay [3], the “Ec: MIC Escherichia coli ATCC 25922” value is “− (>32 μg/mL)”. For the same molecule, the “Ab: MIC Acinetobacter baumannii ATCC 19606” value in assay [4] is on record as “− (>32 μg/mL)”.

On to `NCCCCNC(=O)[C@H](CCCCN)NC(=O)[C@@H](CCCN)NC(=O)[C@H](CCCCN)NC(=O)[C@H](Cc1cnc[nH]1)NC(=O)[C@@H]1CCCN1C(=O)[C@@H](CCCN)NC(=O)CNC(=O)[C@@H](NC(=O)[C@@H](NC(=O)[C@@H](N)CCCCN)[C@@H](O)CN)[C@@H](O)CN` [22.22] (H-K[Dab(3S-OH)][Dab(3S-OH)]G[dOrn]PHK[dOrn]K-{NH(CH2)4NH2}), for which the “Pa: MIC Pseudomonas aeruginosa ATCC 27853” value in assay [1] is reported as “− (>32 μg/mL)”. Further, the “Sa: MIC Staphylococcus aureus ATCC 13709” value in assay [2] is listed as “++ (≤8 μg/mL)”. The “Ec: MIC Escherichia coli ATCC 25922” value in assay [3] is “− (>32 μg/mL)”. Also, the “Ab: MIC Acinetobacter baumannii ATCC 19606” value in assay [4] is given as “− (>32 μg/mL)”.

`CCOC(=O)[C@H](CCCCN)NC(=O)/C(=C/CCNC(=N)N)NC(=O)[C@H](CCCCN)NC(=O)[C@H](Cc1cnc[nH]1)NC(=O)[C@@H]1CCCN1C(=O)[C@@H](CCCN)NC(=O)CNC(=O)[C@@H](NC(=O)[C@@H](NC(=O)[C@@H](N)CCCCN)[C@@H](O)CN)[C@@H](O)CN` [22.28] (H-K[Dab(3S-OH)][Dab(3S-OH)]G[dOrn]PHK[ΔZArg]K-OEt): in assay [1], the “Pa: MIC Pseudomonas aeruginosa ATCC 27853” value was “− (>32 μg/mL)”. In assay [2], the “Sa: MIC Staphylococcus aureus ATCC 13709” value was “++ (≤8 μg/mL)”. In addition, the “Ec: MIC Escherichia coli ATCC 25922” value in assay [3] was “+ (≤32 μg/mL)”. Besides, the “Ab: MIC Acinetobacter baumannii ATCC 19606” value in assay [4] is “− (>32 μg/mL)”.

Turning to `N=C(N)NCC/C=C(\NC(=O)[C@H](CCCCN)NC(=O)[C@H](Cc1cnc[nH]1)NC(=O)[C@@H]1CCCN1C(=O)[C@@H](CCCN)NC(=O)CNC(=O)[C@@H](NC(=O)[C@@H](NC(=O)[C@@H](N)CCCCN)[C@@H](O)CN)[C@@H](O)CN)C(=O)N[C@@H](CCCCN)C(=O)O` [22.29] (H-K[Dab(3S-OH)][Dab(3S-OH)]G[dOrn]PHK[ΔZArg]K-OH), the “Pa: MIC Pseudomonas aeruginosa ATCC 27853” value in assay [1] is listed as “− (>32 μg/mL)”. The “Sa: MIC Staphylococcus aureus ATCC 13709” value in assay [2] was “++ (≤8 μg/mL)”. For the same molecule, in assay [3], the “Ec: MIC Escherichia coli ATCC 25922” value is reported as “+ (≤32 μg/mL)”. Moreover, the “Ab: MIC Acinetobacter baumannii ATCC 19606” value in assay [4] is recorded as “− (>32 μg/mL)”.
